Measurements published in the supplement of paper PMC11208160.

Experiment: recombinant barcode read abundance after kanamycin selection (control-corrected) (log10(CPM+1)); higher = more efficient recombination; sequences stand for … in AGTGCAGAGAAAATCGGCCAGTTTTCTCTGCCTGCAGTCCGCATGCCGT…AGATTTATGCAGCGGACTGCCTTTCTCCCAAAGTGATAAACCGGACAGTATCATGGACCGGTTTTCCCGGTAATCCGTATTTGCAAGGTTGGTTTCACT; site = the 11-nt target
Protocol: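 Pooled E. coli target-specificity screen for the IS621 bridge recombinase. Each library plasmid pairs an 11-nt target (CT core) with a bridge RNA whose target-binding loop (9-nt LTG + 4-nt RTG) is reprogrammed; the rest of the 177-nt WT IS621 bridge RNA scaffold is fixed. The plasmid is co-electroporated with a WT donor plasmid; recombinase is induced with 0.1 mM IPTG and recombinants are selected on kanamycin. Recombinant barcodes are sequenced, converted to CPM, averaged over two biological replicates and corrected by the unselected control CPM. Molecule = full bridge RNA written as DNA: LTG = specificity nt 1-9, RTG = reverse complement of specificity nt 8-11, in the WT scaffold.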
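Also: IS621 recombinase and bridge RNA in Escherichia coli cells.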

Sequence | recombinant barcode read abundance (log10)
AACAGACCTTGGGTTCTAACCTGTTGCCT (site TACAGACCTAG) | 0.686
AACAGGGCTTGGGTTCTAACCTGTTGCCG (site AACAGGGCTCG) | 1.22
AACAGGGCTTGGGTTCTAACCTGTTGCCG (site TGGCATCCTAC) | 0.0251
AACAGGTCTTGGGTTCTAACCTGTTGCCT (site AACAGGTCTAG) | 0.902
AACAGGTCTTGGGTTCTAACCTGTTGCCT (site ACCAGGTCTAG) | 0.175
AACAGGTCTTGGGTTCTAACCTGTTGCCT (site AGCAGGTCTAG) | 0.0529
AACAGGTCTTGGGTTCTAACCTGTTGCCT (site ATCAGGTCTAG) | 0.0485
AACATTCCTTGGGTTCTAACCTGTTGCCT (site AACATTCCTAG) | 0.151
AACATTCCTTGGGTTCTAACCTGTTGCCT (site CACATTCCTAG) | 0
AACATTCCTTGGGTTCTAACCTGTTGCCT (site GACATTCCTAG) | 0.355
AACATTCCTTGGGTTCTAACCTGTTGCCT (site TACATTCCTAG) | 0.0261
AACATTGCTTGGGTTCTAACCTGTTGCCT (site AACAATGCTAG) | 0.765
AACATTGCTTGGGTTCTAACCTGTTGCCT (site AACACTGCTAG) | 0.695
AACATTGCTTGGGTTCTAACCTGTTGCCT (site AACAGTGCTAG) | 0.372
AACATTGCTTGGGTTCTAACCTGTTGCCT (site AACATTGCTAG) | 0.979
AACCATCCTTGGGTTCTAACCTGTTGCCT (site AACCAGCCTAG) | 0.0589
AACCATCCTTGGGTTCTAACCTGTTGCCT (site AACCATCCTAG) | 1.51
AACCTTACTTGGGTTCTAACCTGTTGCCT (site AACCTTACTAG) | 0.631
AACCTTACTTGGGTTCTAACCTGTTGCCT (site ACCCTTACTAG) | 0.122
AACCTTACTTGGGTTCTAACCTGTTGCCT (site AGCCTTACTAG) | 0.0388
AACCTTACTTGGGTTCTAACCTGTTGCCT (site ATCCTTACTAG) | 0.0245

Sequence | recombinant barcode read abundance (log10)
AACGAGTCTTGGGTTCTAACCTGTTGCCT (site AACGAGTCTAG) | 1.03
AACGAGTCTTGGGTTCTAACCTGTTGCCT (site ACCGAGTCTAG) | 0.152
AACGAGTCTTGGGTTCTAACCTGTTGCCT (site AGCGAGTCTAG) | 0.0187
AACGAGTCTTGGGTTCTAACCTGTTGCCT (site ATCGAGTCTAG) | 0.244
AACTAAACTTGGGTTCTAACCTGTTGCCT (site AACTAAACTAG) | 1.02
AACTAAACTTGGGTTCTAACCTGTTGCCT (site AACTCAACTAG) | 0.0768
AACTAAACTTGGGTTCTAACCTGTTGCCT (site AACTGAACTAG) | 0.181
AACTAAACTTGGGTTCTAACCTGTTGCCT (site AACTTAACTAG) | 0.0783
AACTATCCTTGGGTTCTAACCTGTTGCAT (site AACTATCCTAT) | 0.227
AACTATCCTTGGGTTCTAACCTGTTGCAT (site AACTCTCCTAT) | 0.109
AACTATCCTTGGGTTCTAACCTGTTGCAT (site AACTGTCCTAT) | 0.00638
AACTATCCTTGGGTTCTAACCTGTTGCAT (site AACTTTCCTAT) | 0.196
AAGACAACTTGGGTTCTAACCTGTTGCGG (site AAGACAACTCC) | 1.64
AAGACAACTTGGGTTCTAACCTGTTGCGG (site TGCCTGCCTAG) | 0.042
AAGACTCCTTGGGTTCTAACCTGTTGCCT (site AAGACTCCTAG) | 0.824
AAGACTCCTTGGGTTCTAACCTGTTGCCT (site AAGTCTCCTAG) | 0.0612
AAGAGCACTTGGGTTCTAACCTGTTGCCT (site AAGAGCACTAG) | 1.17
AAGAGCACTTGGGTTCTAACCTGTTGCCT (site CAGAGCACTAG) | 0.0257
AAGAGCACTTGGGTTCTAACCTGTTGCCT (site GAGAGCACTAG) | 0.0862
AAGAGCACTTGGGTTCTAACCTGTTGCCT (site TAGAGCACTAG) | 0.315
AAGATAGCTTGGGTTCTAACCTGTTGCCT (site AAGAAAGCTAG) | 0.192

Sequence | recombinant barcode read abundance (log10)
AAGATAGCTTGGGTTCTAACCTGTTGCCT (site AAGACAGCTAG) | 0.147
AAGATAGCTTGGGTTCTAACCTGTTGCCT (site AAGAGAGCTAG) | 0.164
AAGATAGCTTGGGTTCTAACCTGTTGCCT (site AAGATAGCTAG) | 1.59
AAGCCCACTTGGGTTCTAACCTGTTGCGG (site AAGCCCACTCC) | 2.28
AAGCCCACTTGGGTTCTAACCTGTTGCGG (site CGCGTTGCTAG) | 0.561
AAGCCGCCTTGGGTTCTAACCTGTTGCTT (site AAGCCGCCTAA) | 0.906
AAGCCGCCTTGGGTTCTAACCTGTTGCTT (site TCAATAGCTGT) | 0.35
AAGCTCCCTTGGGTTCTAACCTGTTGCCT (site AAGCTCCCTAG) | 1.6
AAGCTCCCTTGGGTTCTAACCTGTTGCCT (site ACACTCCCTAG) | 0.242
AAGGCCGCTTGGGTTCTAACCTGTTGCCT (site AAGGACGCTAG) | 1.37
AAGGCCGCTTGGGTTCTAACCTGTTGCCT (site AAGGCCGCTAG) | 1.79
AAGGCCGCTTGGGTTCTAACCTGTTGCCT (site AAGGGCGCTAG) | 0.161
AAGGCCGCTTGGGTTCTAACCTGTTGCCT (site AAGGTCGCTAG) | 0.259
AAGGCGCCTTGGGTTCTAACCTGTTGCCT (site AAGGCGCCTAG) | 0.806
AAGGCGCCTTGGGTTCTAACCTGTTGCCT (site ACGGCGCCTAG) | 0.11
AAGGCGCCTTGGGTTCTAACCTGTTGCCT (site AGGGCGCCTAG) | 0.128
AAGGCGCCTTGGGTTCTAACCTGTTGCCT (site ATGGCGCCTAG) | 0.135
AAGGGCTCTTGGGTTCTAACCTGTTGCTT (site AAGGGCTCTAA) | 2.72
AAGGGCTCTTGGGTTCTAACCTGTTGCTT (site GTCTCTCCTCT) | 0.129
AAGGTCCCTTGGGTTCTAACCTGTTGCGG (site AAGGTCCCTCC) | 3.32
AAGGTCCCTTGGGTTCTAACCTGTTGCGG (site TAGGTCCCTTC) | 0.0703

Sequence | recombinant barcode read abundance (log10)
AAGGTGTCTTGGGTTCTAACCTGTTGCCT (site AAAGTGTCTAG) | 1.97
AAGGTGTCTTGGGTTCTAACCTGTTGCCT (site AACGTGTCTAG) | 0.736
AAGGTGTCTTGGGTTCTAACCTGTTGCCT (site AAGGTGTCTAG) | 3.29
AAGGTGTCTTGGGTTCTAACCTGTTGCCT (site AATGTGTCTAG) | 0.45
AAGTCCACTTGGGTTCTAACCTGTTGCTT (site AAGTCCACTAA) | 0.856
AAGTCCACTTGGGTTCTAACCTGTTGCTT (site TAGTCCACTTA) | 0.093
AAGTGGTCTTGGGTTCTAACCTGTTGCTA (site AAGTGGTCTTA) | 1.46
AAGTGGTCTTGGGTTCTAACCTGTTGCTA (site TGAGTCCCTCT) | 0
AAGTTGTCTTGGGTTCTAACCTGTTGCGT (site AAGTTGTCTAC) | 2.77
AAGTTGTCTTGGGTTCTAACCTGTTGCGT (site CAGTTGTCTAG) | 0.0897
AATACCACTTGGGTTCTAACCTGTTGCCT (site AATACCACTAG) | 0.576
AATACCACTTGGGTTCTAACCTGTTGCCT (site AATCGCACTAG) | 0.186
AATAGGACTTGGGTTCTAACCTGTTGCGC (site AATAGGACTGC) | 1.76
AATAGGACTTGGGTTCTAACCTGTTGCGC (site ATTAGGACTTC) | 0.0105
AATATAGCTTGGGTTCTAACCTGTTGCTA (site AATATAGCTTA) | 0.0685
AATATAGCTTGGGTTCTAACCTGTTGCTA (site TTCCCCACTAG) | 0
AATCGAGCTTGGGTTCTAACCTGTTGCGG (site AATCGAGCTCC) | 1.82
AATCGAGCTTGGGTTCTAACCTGTTGCGG (site TCCGCTTCTAA) | 0.0864
AATCTCCCTTGGGTTCTAACCTGTTGCCT (site AATATGCCTAG) | 0.298
